Assay results taken from patent publication US20050250090A1, “Assay systems and methods for detecting molecules that interact with SK2 channels” (priority 2003, published 2005).
Bridge positions count the residues as written; N and C are the ends. Peptide text beside a SMILES is read from it.

Target: hSK2A^+ (Homo sapiens, UniProt Q9H2S1, DUP58-58)
Test: Membrane potential sensitive dye fluorescence assay (FLIPR384) in tsA201 cells stably expressing SK2
Format: cell-based
Conditions: for Hill coefficient (nH): inhibition of ATP/Tg induced decrease in fluorescence, FIG. 9; for effect on the fluorescence signals (responses to ATP/Tg and Cs+): 10 minutes incubation
Method: These cells were plated in a black optical bottom 384 well assay plate at a density of 8×10^6 cells/plate. […] After a 30-minute incubation in the voltage sensitive dye, the cell plate was transferred to a fluorescence plate reader (FLIPR384™, Molecular Devices), and ten baseline fluorescence readings were obtained.
Intracellular Ca^2+ levels of the cells were raised by addition of ATP (200 μM final concentration) and thapsigargin (1 μM final concentration). […] In FIG. 8, time is represented in seconds on the X-axis, and fluorescence is represented in au on the Y-axis. ATP/Tg addition is indicated at time 1, and CsCl addition is indicated at time II.
The magnitude of the ATP/Tg induced decrease in fluorescence was measured in the presence of each of a panel of known SK2 inhibitors. […]

Sequence of hSK2A^+ (Q9H2S1 with tags, fused parts or gaps DUP58-58): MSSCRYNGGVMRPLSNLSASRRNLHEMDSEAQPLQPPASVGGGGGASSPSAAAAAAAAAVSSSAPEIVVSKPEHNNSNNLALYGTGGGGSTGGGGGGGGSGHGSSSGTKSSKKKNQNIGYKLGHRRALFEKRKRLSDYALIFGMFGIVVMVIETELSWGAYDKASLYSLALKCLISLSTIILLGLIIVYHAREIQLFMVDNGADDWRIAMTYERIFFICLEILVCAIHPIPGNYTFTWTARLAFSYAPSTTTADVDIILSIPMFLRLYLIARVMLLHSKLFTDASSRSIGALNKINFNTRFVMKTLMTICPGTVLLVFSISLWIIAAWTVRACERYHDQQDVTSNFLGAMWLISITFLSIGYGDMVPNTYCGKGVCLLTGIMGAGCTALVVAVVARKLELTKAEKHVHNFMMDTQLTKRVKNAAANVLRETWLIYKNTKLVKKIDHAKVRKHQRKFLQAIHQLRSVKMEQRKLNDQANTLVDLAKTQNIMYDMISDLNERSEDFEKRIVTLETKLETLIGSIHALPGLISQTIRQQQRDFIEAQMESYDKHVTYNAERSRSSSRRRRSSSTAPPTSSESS

Row | Molecule | Hill coefficient (nH) | effect on the fluorescence signals (responses to ATP/Tg and Cs+) (tested at 833 nM) | other results
1 | O=c1[nH]c2cc(C(F)(F)F)ccc2n1-c1cc(C(F)(F)F)ccc1O [NS1619] | 2 |  | 
2 | C[N+]1(C)CCc2cc3c(cc2[C@H]1[C@@H]1OC(=O)c2c1ccc1c2OCO1)OCO3.[Br-] [bicuculline methobromide] | 1 |  | 
3 | CC(N/C(=N\C#N)Nc1ccncc1)C(C)(C)C (centres unmarked) [pinacidil] |  |  | effect on the fluorescence signals (responses to ATP/Tg and Cs+) (tested at 286 μM): no effect
4 | C=C[C@H]1C[N@@]2CC[C@H]1C[C@@H]2[C@@H](O)c1ccnc2ccc(OC)cc12 [quinidine] | 0.6 |  | 
5 | CC[C@H](C)[C@@H]1NC(=O)[C@@H]2CSSC[C@H](NC(=O)[C@H](Cc3ccccc3)NC(=O)[C@H](C)N)C(=O)N[C@@H](CC(N)=O)C(=O)N[C@@H](CC(C)C)C(=O)N[C@@H](CCCNC(=N)N)C(=O)N[C@@H](CCSC)C(=O)N[C@H]3CSSC[C@H](NC(=O)[C@H](CCCCN)NC(=O)[C@H](CC(=O)O)NC(=O)CNC1=O)C(=O)N[C@@H](CCC(=O)O)C(=O)N[C@H](C(=O)N[C@H](C(=O)N[C@@H](CCCCN)C(=O)N[C@@H](Cc1c[nH]cn1)C(N)=O)C(C)C)CSSC[C@H](NC(=O)[C@H](CO)NC(=O)[C@H](CC(C)C)NC(=O)[C@H](CCC(N)=O)NC3=O)C(=O)N[C@@H](CCCNC(=N)N)C(=O)N[C@@H](CO)C(=O)N[C@@H](CC(C)C)C(=O)NCC(=O)N[C@@H](CC(C)C)C(=O)N[C@@H](CC(C)C)C(=O)NCC(=O)N[C@@H](CCCCN)C(=O)N2 [scyllatoxin] (H-AFCNLRMCQLSCRSLGLLGKCIGDKCECVKH-NH2; disulfide 3-21, 8-26, 12-28) |  |  | IC50: 1.1 nM
6 | iberiotoxin (QFTDVDCSVSKECWSVCKDLFGVDRGKCMGKKCRCYQ) [toxin isolated from Mesobuthus tamulus] |  | no effect | 
7 | noxiustoxin (TIINVKCTSPKQCSKPCKELYGSSAGAKCMNGKCKCYNN) |  | no effect | 
8 | α-dendrotoxin (QPRRKLCILHRNPGRCYDKIPAFYYNQKKKQCERFDWSGCGGNSNRFKTIEECRRTCIG) |  | no effect | 
